Source: US20220105206A1, “SENSITIVITY ADVANCES IN ULTRASOUND SWITCHABLE FLUORESCENCE SYSTEMS AND TECHNIQUES” (Board of Regents, The University of Texas System, priority 2020, published 2022)

How the values were obtained:
[1] = cited from earlier work
[2] = Excitation and emission spectra of LNPs (Example 5); assay type: physicochemical; settings: 530 nm excitation, 25° C.
Method: The hydrodynamic sizes of liposomes were measured with the DLS particle analyzer (NanoBrook 90PlusPALS, Brookhaven Instruments, USA). The incident angle of the 659 nm laser was 90 degrees. Samples were diluted with DI water until the count rate reaches 300-700 kcps and the temperature was set at 25° C. The excitation and emission spectra of LNPs were characterized via a spectrometer (Fluoromax-Plus-C, Horiba, Japan) using a 300 μL quartz cuvette (Hellma, Germany) with stir at 25° C. The excitation spectrum was scanned from 650-810 nm with an 830 nm LP emission filter and an emission recording wavelength at 850 nm. The emission spectrum was acquired using a 530 nm excitation light with a 550 nm LP emission filter (Semrock, USA) and recorded from 650-850 nm.

[3] = literature value; cited from earlier work

Q: Which results are given for `CC1(C)C(/C=C/C=C/C=C/C=C2\N(CCCCS(=O)(=O)O)c3ccc4ccccc4c3C2(C)C)=[N+](CCCCS(=O)(=O)[O-])c2ccc3ccccc3c21` [ICG, indocyanine green]?
A: degradation of aqueous solutions ([1]; DI water and buffered saline): degraded relatively quickly by day 20; plasma half-life [1]: 2 to 4 min; emission peak [2]: 809 nm; emission wavelength [3]: around 810 nm; maximum absorption wavelength [3]: around 785 nm
